Results from patent publication US20090118332A1, “Therapeutic Agents - 551” (AstraZeneca AB, priority 2006, published 2009).

The compounds below were run against T1, human Fatty Acid Synthase (Homo sapiens, UniProt P49327) (assay: Human FAS enzyme assay (decrease in NADPH fluorescence)). Details: % inhibition at a concentration of 100 μmolar.
T1 construct: made in house
Assay type: biochemical
Experimental: Human and Rat FAS Enzyme Assay.
Fatty acid synthase is an enzyme complex that harbours seven enzymatic activities catalysing the reductive synthesis of long chain fatty acids from acetyl CoA and malonyl CoA to palmitate. When acetyl CoA and malonyl CoA are forming palmitate NADPH is consumed forming NADP. Since NADPH is fluorescent but not NADP the reaction can be measured by analysing the decrease in fluorescence.
Compounds were added to a black 384 well plate (Matrix) in a volume of 5 μl consisting of 20% DMSO and 80% Tris buffer pH 7.5, at a top concentration of 1 mM. NADPH, 30 μl of 166.6 μM, formulated in assay buffer (0.1M Tris ph7.5, 0.1 mM EDTA, 1 mM glutathione, 0.05% BSA), was then added to all of the wells of the plate. Fatty acid synthase Human or rat enzyme (0.4 μg, produced in house), dissolved in 20 mM Tris/HCl pH 7.5, 5 mM BOG, 1 mM TCEP, 10% glycerol, 1 mM EDTA, 150 mM NaCl, was then added to the plate in a volume of 10 μl. Enzyme was added to all but the last two columns of the plate, to which, 10 μl of assay buffer was added (0.1M Tris ph7.5, 0.1 mM EDTA, 1 mM glutathione, 0.05% BSA) to provide a no enzyme assay control. Following a 15-minute incubation period, at room temperature, the plates were read on an Envision plate reader using 340 nm excitation and 460 nm emission filters. This served as a time zero background read. Substrates (an equal mix of both malonyl and acetyl CoA) were then added to the plates in a total volume of 5 μl. The concentrations of malonyl and acetyl CoA in the mixture were 500 μM and 150 μM respectively. Both were prepared as 10 mM stock solutions in distilled water and were subsequently diluted to working concentrations in assay buffer. Plates were then incubated for a further 60 minutes, at room temperature, before being read again on the Envision reader using the same parameters as previously used. The data was analysed by subtracting the background time zero data from that generated following the final 60 minute incubate and the percent inhibition compared to the maximum and minimum assay controls was determined. Sigmoid curves were fitted using Origin 7.5 Client software and IC50 values were determined.

T1 sequence (P49327 whole entry): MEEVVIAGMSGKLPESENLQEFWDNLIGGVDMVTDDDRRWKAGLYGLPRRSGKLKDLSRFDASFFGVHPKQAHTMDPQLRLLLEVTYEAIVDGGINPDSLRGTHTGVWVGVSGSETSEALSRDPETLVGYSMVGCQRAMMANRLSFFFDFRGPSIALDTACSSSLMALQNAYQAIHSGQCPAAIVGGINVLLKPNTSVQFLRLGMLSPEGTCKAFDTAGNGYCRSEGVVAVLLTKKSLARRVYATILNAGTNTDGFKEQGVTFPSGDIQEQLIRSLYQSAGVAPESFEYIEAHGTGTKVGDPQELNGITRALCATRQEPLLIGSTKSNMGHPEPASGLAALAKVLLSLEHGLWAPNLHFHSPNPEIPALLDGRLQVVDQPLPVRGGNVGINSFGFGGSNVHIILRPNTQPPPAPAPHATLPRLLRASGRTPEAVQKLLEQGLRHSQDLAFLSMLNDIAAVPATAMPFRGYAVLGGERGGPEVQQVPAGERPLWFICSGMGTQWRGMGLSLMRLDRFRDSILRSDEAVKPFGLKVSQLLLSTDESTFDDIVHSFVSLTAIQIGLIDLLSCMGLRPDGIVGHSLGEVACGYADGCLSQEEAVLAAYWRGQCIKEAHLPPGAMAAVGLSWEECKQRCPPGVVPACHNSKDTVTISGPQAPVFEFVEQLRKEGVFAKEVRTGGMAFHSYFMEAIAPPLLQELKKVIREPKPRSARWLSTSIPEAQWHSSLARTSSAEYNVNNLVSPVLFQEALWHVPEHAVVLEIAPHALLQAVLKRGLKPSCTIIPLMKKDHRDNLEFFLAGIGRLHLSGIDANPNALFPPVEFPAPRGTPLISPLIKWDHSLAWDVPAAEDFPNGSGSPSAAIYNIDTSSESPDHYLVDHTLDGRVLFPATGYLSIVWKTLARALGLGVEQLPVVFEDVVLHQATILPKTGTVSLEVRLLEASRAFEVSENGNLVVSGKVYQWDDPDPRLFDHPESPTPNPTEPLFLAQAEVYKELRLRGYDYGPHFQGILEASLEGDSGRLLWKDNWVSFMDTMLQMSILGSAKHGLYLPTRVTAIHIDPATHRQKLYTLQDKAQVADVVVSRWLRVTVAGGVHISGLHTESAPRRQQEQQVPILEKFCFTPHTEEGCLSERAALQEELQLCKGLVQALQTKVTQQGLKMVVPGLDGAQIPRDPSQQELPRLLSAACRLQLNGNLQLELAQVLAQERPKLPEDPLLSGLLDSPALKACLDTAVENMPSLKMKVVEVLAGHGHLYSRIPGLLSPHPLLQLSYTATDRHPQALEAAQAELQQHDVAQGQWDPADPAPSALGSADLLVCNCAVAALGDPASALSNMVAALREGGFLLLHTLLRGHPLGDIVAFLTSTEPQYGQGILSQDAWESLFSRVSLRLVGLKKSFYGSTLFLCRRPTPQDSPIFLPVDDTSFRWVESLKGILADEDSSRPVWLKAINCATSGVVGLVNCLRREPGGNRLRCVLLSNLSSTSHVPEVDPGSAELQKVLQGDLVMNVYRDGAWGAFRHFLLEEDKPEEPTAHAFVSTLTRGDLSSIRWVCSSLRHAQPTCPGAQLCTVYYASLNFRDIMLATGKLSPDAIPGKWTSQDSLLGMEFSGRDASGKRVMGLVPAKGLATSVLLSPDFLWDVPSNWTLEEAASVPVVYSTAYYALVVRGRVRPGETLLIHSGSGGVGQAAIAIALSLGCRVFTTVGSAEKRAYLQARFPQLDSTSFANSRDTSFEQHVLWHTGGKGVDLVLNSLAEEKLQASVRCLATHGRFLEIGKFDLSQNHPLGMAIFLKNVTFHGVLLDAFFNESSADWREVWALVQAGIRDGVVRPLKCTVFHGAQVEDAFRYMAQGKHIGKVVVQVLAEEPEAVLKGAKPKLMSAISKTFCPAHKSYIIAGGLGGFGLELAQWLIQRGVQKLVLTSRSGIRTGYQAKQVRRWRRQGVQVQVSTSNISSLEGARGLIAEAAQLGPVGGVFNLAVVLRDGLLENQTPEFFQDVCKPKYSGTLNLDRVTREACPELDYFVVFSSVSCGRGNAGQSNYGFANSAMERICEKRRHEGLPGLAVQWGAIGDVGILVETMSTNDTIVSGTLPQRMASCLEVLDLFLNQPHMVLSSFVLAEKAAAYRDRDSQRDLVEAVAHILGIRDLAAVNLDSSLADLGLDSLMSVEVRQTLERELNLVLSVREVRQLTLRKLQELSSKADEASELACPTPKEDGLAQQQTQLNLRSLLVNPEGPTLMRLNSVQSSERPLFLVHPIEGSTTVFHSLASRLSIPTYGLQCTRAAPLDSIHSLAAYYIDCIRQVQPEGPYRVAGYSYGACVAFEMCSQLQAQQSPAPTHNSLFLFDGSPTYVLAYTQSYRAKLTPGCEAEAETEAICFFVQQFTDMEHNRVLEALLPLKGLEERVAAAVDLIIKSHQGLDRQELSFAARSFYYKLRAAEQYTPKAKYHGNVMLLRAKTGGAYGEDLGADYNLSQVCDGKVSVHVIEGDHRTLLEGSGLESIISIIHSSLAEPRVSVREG

| Structure (SMILES) | inhibition at 100 µM |
| --- | --- |
| CC(C)NC(=O)Nc1cc(C(=O)N2CCC(c3ccc(C#N)cc3)CC2)ccc1OC(F)(F)F [Example 4, 3-[5-[4-(4-cyanophenyl)piperidine-1-carbonyl]-2-(trifluoromethoxy)phenyl]-1-propan-2-yl-urea] | 86.1% |
| N#Cc1ccc(C2CCN(C(=O)c3ccc(OC(F)(F)F)c(NC(=O)NCc4ccccc4)c3)CC2)cc1 [Example 5, 3-benzyl-1-[5-[4-(4-cyanophenyl)piperidine-1-carbonyl]-2-(trifluoromethoxy)phenyl]urea] | 78.8% |
| Cc1ccc(NC(=O)NCc2ccccc2)cc1C(=O)N1CCC(c2ccc(C#N)cc2)CC1 [Example 7, 3-benzyl-1-[3-[4-(4-cyanophenyl)piperidine-1-carbonyl]-4-methyl-phenyl]urea] | 79.1% |
| N#Cc1ccc(C2CCN(C(=O)c3ccc(F)c(NC(=O)NCc4ccccc4)c3)CC2)cc1 [Example 8, 3-benzyl-1-[5-[4-(4-cyanophenyl)piperidine-1-carbonyl]-2-fluoro-phenyl]urea] | 82.6% |
| COc1ccc(C(=O)N2CCC(c3ccc(C#N)cc3)CC2)cc1NC(=O)NCc1ccccc1 [Example 9, 3-benzyl-1-[5-[4-(4-cyanophenyl)piperidine-1-carbonyl]-2-methoxy-phenyl]urea] | 70.4% |
| Cc1cc(C)c(C(=O)N2CCC(c3ccc(C#N)cc3)CC2)cc1NC(=O)NCc1ccccc1 [Example 12, 3-benzyl-1-[5-[4-(4-cyanophenyl)piperidine-1-carbonyl]-2,4-dimethyl-phenyl]urea] | 84.6% |
| Cc1cc(C)c(C(=O)N2CCC(c3ccc(C#N)cc3)CC2)cc1NC(=O)NC(C)C [Example 13, 3-[5-[4-(4-cyanophenyl)piperidine-1-carbonyl]-2,4-dimethyl-phenyl]-1-propan-2-yl-urea] | 84.8% |
| N#Cc1ccc(C2CCN(C(=O)c3cccc(NC(=O)NCc4ccccc4)c3)CC2)cc1 [Example 14, 1-benzyl-3-[3-[4-(4-cyanophenyl)piperidine-1-carbonyl]phenyl]urea] | 90.1% |
| CCNC(=O)Nc1ccc(C)c(C(=O)N2CCC(c3ccc(C#N)cc3)CC2)c1 [Example 19, 3-[3-[4-(4-cyanophenyl)piperidine-1-carbonyl]-4-methyl-phenyl]-1-ethyl-urea] | 79.9% |
| CCCCNC(=O)Nc1ccc(C)c(C(=O)N2CCC(c3ccc(C#N)cc3)CC2)c1 [Example 20, 1-butyl-3-[3-[4-(4-cyanophenyl)piperidine-1-carbonyl]-4-methyl-phenyl]urea] | 79.2% |

Continued, values first:

| inhibition at 100 µM | Structure (SMILES) |
| --- | --- |
| 95.6% | CCCCNC(=O)Nc1cc(C(=O)N2CCC(c3ccc(C#N)cc3)CC2)ccc1C [Example 1, 1-butyl-3-[5-[4-(4-cyanophenyl)piperidine-1-carbonyl]-2-methyl-phenyl]urea] |
| 79.7% | Cc1ccc(C(=O)N2CCC(c3ccc(C#N)cc3)CC2)cc1NC(=O)N1CCOCC1 [Example 2, N-[5-[4-(4-cyanophenyl)piperidine-1-carbonyl]-2-methyl-phenyl]morpholine-4-carboxamide] |
| 95.6% | Cc1ccc(C(=O)N2CCC(c3ccc(C#N)cc3)CC2)cc1NC(=O)NC(C)C [Example 3, 3-[5-[4-(4-cyanophenyl)piperidine-1-carbonyl]-2-methyl-phenyl]-1-propan-2-yl-urea] |
| 79.6% | COc1ccc(C(=O)N2CCC(c3ccc(C#N)cc3)CC2)cc1NC(=O)NC(C)C [Example 6, 1-[5-[4-(4-cyanophenyl)piperidine-1-carbonyl]-2-methoxy-phenyl]-3-propan-2-yl-urea] |
| 83.5% | Cc1ccc(C(=O)N2CCC(c3ccc(C#N)cc3)CC2)cc1NC(=O)N1CCCC1 [Example 10, N-[5-[4-(4-cyanophenyl)piperidine-1-carbonyl]-2-methyl-phenyl]pyrrolidine-1-carboxamide] |
| 68.4% | CC(C)NC(=O)Nc1cc(C(=O)N2CCC(c3ccc(C#N)cc3)CC2)ccc1F [Example 11, 3-[5-[4-(4-cyanophenyl)piperidine-1-carbonyl]-2-fluoro-phenyl]-1-propan-2-yl-urea] |
| 91.3% | Cc1ccc(C(=O)N2CCC(c3ccc(C#N)cc3)CC2)cc1NC(=O)NC1CCCC1 [Example 15, 1-[5-[4-(4-cyanophenyl)piperidine-1-carbonyl]-2-methyl-phenyl]-3-cyclopentyl-urea] |
| 98.3% | Cc1ccc(C(=O)N2CCC(c3ccc(C#N)cc3)CC2)cc1NC(=O)NCCc1ccccc1 [Example 16, 1-[5-[4-(4-cyanophenyl)piperidine-1-carbonyl]-2-methyl-phenyl]-3-phenethyl-urea] |
| 90.1% | Cc1ccc(C(=O)N2CCC(c3ccc(C#N)cc3)CC2)cc1NC(=O)NCC1CCOCC1 [Example 17, 1-[5-[4-(4-cyanophenyl)piperidine-1-carbonyl]-2-methyl-phenyl]-3-(oxan-4-ylmethyl)urea] |
| 75.9% | CNC(=O)Nc1ccc(C)c(C(=O)N2CCC(c3ccc(C#N)cc3)CC2)c1 [Example 18, 3-[3-[4-(4-cyanophenyl)piperidine-1-carbonyl]-4-methyl-phenyl]-1-methyl-urea] |
| 78.8% | Cc1ccc(NC(=O)NC2CCCC2)cc1C(=O)N1CCC(c2ccc(C#N)cc2)CC1 [Example 21, 1-[3-[4-(4-cyanophenyl)piperidine-1-carbonyl]-4-methyl-phenyl]-3-cyclopentyl-urea] |

Same assay, conditions: FAS enzyme assay, IC50 from fitted sigmoid curves

| Structure (SMILES) | IC50, inhibition of human Fatty Acid Synthase |
| --- | --- |
| CC(C)NC(=O)Nc1ccc([S+](C)[O-])c(C(=O)N2CCC(c3ccc(C#N)cc3)CC2)c1 (stereo not shown) [3-[3-[4-(4-cyanophenyl)piperidine-1-carbonyl]-4-methylsulfinylphenyl]-1-propan-2-ylurea] | do not have IC50s in the range of about 0.001 μM to about 30 μM |
| CC(C)NC(=O)Nc1ccc(S(C)(=O)=O)c(C(=O)N2CCC(c3ccc(C#N)cc3)CC2)c1 [3-[3-[4-(4-cyanophenyl)piperidine-1-carbonyl]-4-methylsulfonylphenyl]-1-propan-2-ylurea] | do not have IC50s in the range of about 0.001 μM to about 30 μM |
| Cc1ccc(C(=O)N2CCC(c3ccc(C#N)cc3)CC2)cc1NC(=O)N(C)C [3-[5-[4-(4-cyanophenyl)piperidine-1-carbonyl]-2-methylphenyl]-1,1-dimethylurea] | do not have IC50s in the range of about 0.001 μM to about 30 μM |
| Cc1ccc(C(=O)N2CCC(c3ccc(C#N)cc3)CC2)cc1NC(=O)N(C)C(C)(C)C#N [3-[5-[4-(4-cyanophenyl)piperidine-1-carbonyl]-2-methylphenyl]-1-(2-cyanopropan-2-yl)-1-methylurea] | do not have IC50s in the range of about 0.001 μM to about 30 μM |
| COCCN(C)C(=O)Nc1cc(C(=O)N2CCC(c3ccc(C#N)cc3)CC2)ccc1C [3-[5-[4-(4-cyanophenyl)piperidine-1-carbonyl]-2-methylphenyl]-1-(2-methoxyethyl)-1-methylurea] | do not have IC50s in the range of about 0.001 μM to about 30 μM |
| Cc1ccc(C(=O)N2CCC(c3ccc(C#N)cc3)CC2)cc1NC(=O)N(C1CC1)C1CCS(=O)(=O)C1 (stereo not shown) [3-[5-[4-(4-cyanophenyl)piperidine-1-carbonyl]-2-methylphenyl]-1-cyclopropyl-1-(1,1-dioxothiolan-3-yl)urea] | do not have IC50s in the range of about 0.001 μM to about 30 μM |
| Cc1ccc(C(=O)N2CCC(c3ccc(C#N)cc3)CC2)cc1NC(=O)N(C)CC1CCCO1 (stereo not shown) [3-[5-[4-(4-cyanophenyl)piperidine-1-carbonyl]-2-methylphenyl]-1-methyl-1-(oxolan-2-ylmethyl)urea] | do not have IC50s in the range of about 0.001 μM to about 30 μM |
| COc1ccc(NC(=O)NCc2ccccc2)cc1C(=O)N1CCC(c2ccc(C#N)cc2)CC1 [3-benzyl-1-[3-[4-(4-cyanophenyl)piperidine-1-carbonyl]-4-methoxyphenyl]urea] | do not have IC50s in the range of about 0.001 μM to about 30 μM |
| CS(=O)(=O)c1ccc(C(=O)N2CCC(c3ccc(C#N)cc3)CC2)cc1NC(=O)NCc1ccccc1 [3-benzyl-1-[5-[4-(4-cyanophenyl)piperidine-1-carbonyl]-2-methylsulfonylphenyl]urea] | do not have IC50s in the range of about 0.001 μM to about 30 μM |
| CCOC(=O)[C@H](CO)NC(=O)Nc1cc(C(=O)N2CCC(c3ccc(C#N)cc3)CC2)ccc1C [Ethyl (2S)-2-[[5-[4-(4-cyanophenyl)piperidine-1-carbonyl]-2-methylphenyl]carbamoylamino]-3-hydroxypropanoate] | do not have IC50s in the range of about 0.001 μM to about 30 μM |
